Assay results taken from US20240125803A1, “NOVEL DIAGNOSTIC AND METHOD OF SCREENING THERAPEUTICS FOR FIBROTIC CONDITIONS” (BLR-Bio, LLC, priority 2022, published 2024).

Assays:
[1] = tested on: fibrosis-related gene expression; assay: Bleomycin-induced skin fibrosis, 21 days: bulk RNAseq of skin; format: in vivo, C57BL/6J mice; conditions: d21, n=2
Method: 6-week-old C57BL/6J mice were subjected to bleomycin treatment (subcutaneous injection 0.1 U/100 μl/mouse daily) in the presence or absence of BLR200 (intraperitoneal injection 10 μg/kg every other day) for 21 days. For a reversal of fibrosis experiment, BLR200 treatment was started at d14 of bleomycin treatment and continued until d28. Fibrosis was assessed by histological, and unbiased bulk RNAseq, real-time polymerase chain reaction and spatial transcriptomic analyses.
Unbiased cluster analysis of bulk RNAseq data was performed using the Database for Annotation, Visualization and Integrated Discovery (DAVID). Clusters relate to fibrosis with the enrichment score and #of genes greater than 1.0 and 10, respectively, were chosen. n=2.

[2] = target: T1, CCN2 (Mus musculus, UniProt P29268); conditions: Makino et al., 2017; cited from earlier work
T1 construct: FG-3019 treatment mitigated Ang II-induced fibrosis, as visualized by a reduction in skin thickness; host or cells: animals of the Ang II-induced dermal fibrosis model (endogenous protein)
T1 sequence (P29268 26-348): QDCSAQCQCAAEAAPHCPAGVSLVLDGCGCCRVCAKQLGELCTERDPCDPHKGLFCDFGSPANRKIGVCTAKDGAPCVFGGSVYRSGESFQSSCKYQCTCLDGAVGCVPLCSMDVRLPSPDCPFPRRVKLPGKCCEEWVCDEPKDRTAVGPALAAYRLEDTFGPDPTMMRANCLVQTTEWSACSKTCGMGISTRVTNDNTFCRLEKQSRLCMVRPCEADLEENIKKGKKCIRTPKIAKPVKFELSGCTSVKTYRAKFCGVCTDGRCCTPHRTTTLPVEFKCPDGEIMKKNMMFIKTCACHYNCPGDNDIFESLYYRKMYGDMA

[3] = tested on: fibrosis in diabetic nephropathy; conditions: Riser et al., 2014; cited from earlier work

Bleomycin sulfate
Fold Chance, ADAM10 [1]: 3.68 Fold
Fold Chance, ADAMTS4 [1]: 4.29 Fold
Fold Chance, ADAMTS9 [1]: 4.46 Fold
Fold Chance, ADAMTS20 [1]: 11.3 Fold
Fold Chance, CDH11 [1]: 11.3 Fold
Fold Chance, CITED2 [1]: 6.43 Fold
Fold Chance, ELK1 [1]: 3.69 Fold
Fold Chance, FN1 [1]: 5.12 Fold
Fold Chance, FZD6 [1]: 22.4 Fold
Fold Chance, ITGA6 [1]: 4.46 Fold
Fold Chance, ITGAE [1]: 3.68 Fold
Fold Chance, PECAM1 [1]: 4.29 Fold
Fold Chance, SMAD3 [1]: 3.07 Fold
Fold Chance, TNC [1]: 3.13 Fold
Fold Chance, WNT4 [1]: 3.07 Fold
Fold Chance, WNT7a [1]: 5.81 Fold
Fold Chance, YAP1 (Yes-associated protein 1) [1]: 8.61 Fold

FG-3019: monoclonal antibody targeting CCN2
Ang II-induced fibrosis (skin thickness, collagen deposition, number of αSMA-expressing myofibroblasts) [2]: mitigated

B1: rhCCN3: recombinant human CCN3 (protein, UniProt P48745 32-357, looked up)
CCN family member 3: TQRCPPQCPGRCPATPPTCAPGVRAVLDGCSCCLVCARQRGESCSDLEPCDESSGLYCDRSADPSNQTGICTAVEGDNCVFDGVIYRSGEKFQPSCKFQCTCRDGQIGCVPRCQLDVLLPEPNCPAPRKVEVPGECCEKWICGPDEEDSLGGLTLAAYRPEATLGVEVSDSSVNCIEQTTEWTACSKSCGMGFSTRVTNRNRQCEMLKQTRLCMVRPCEQEPEQPTDKKGKKCLRTKKSLKAIHLQFKNCTSLHTYKPRFCGVCSDGRCCTPHNTKTIQAEFQCSPGQIVKKPVMVIGTCTCHTNCPKNNEAFLQELELKTTRGKM
fibrosis in a mouse model of diabetic nephropathy [3]: block and reverse fibrosis
